Source: article PMC5974779, “Prediction of Drug-Induced Hepatotoxicity Using Long-Term Stable Primary Hepatic 3D Spheroid Cultures in Chemically Defined Conditions” (Toxicological Sciences, 2018)
Read-outs that look alike come from different tables or passages of the source.

Legend:
[1] = cited from earlier work
[2] = test system: primary human hepatocytes (PHH) 3D spheroids
[3] = ref DrugBank and Prescribers' Digital Reference database; cited from earlier work
[4] = test system: clinical DILI in man; conditions: cited from earlier work
[5] = therapeutic total cmax, ref PMID
[6] = FDA drug labeling DILI score, ref Chen et al., 2011
[7] = clinical DILI classification in man (POS/NEG)
[8] = clinical DILI classification used in this study, Supplementary Table 2, ref Chen et al., 2011, Guo et al., 2005, O'Brien et al., 2006, Sakatis et al., 2012, Suzuki et al., 2010, Xu et al., 2008
[9] = clinical DILI classification, Supplementary Table 1, ref Chen et al., 2011, Guo et al., 2005, O'Brien et al., 2006, Sakatis et al., 2012, Suzuki et al., 2010, Xu et al., 2008
[10] = clinical DILI classification, ref Xu et al. (2008)
[11] = reported pattern of liver damage, Supplementary Table 2, ref literature
[12] = DILI classification score, ref Suzuki et al. (2010)
[13] = FDA drug labeling DILI concern, ref Chen et al., 2011

CC(C)OC(=O)C(C)(C)Oc1ccc(C(=O)c2ccc(Cl)cc2)cc1 [Fenofibrate]
Cmax [1, 5]: 12100 nM
Chemically defined spheroids (this study) 20x [2]: Positive
Extent of hepatic metabolism [3]: Extensive
Classified as ([4]; in vivo): POS
Clinical DILI class (panel heading of Figure 4) ([4]; in vivo): High DILI concern
DILI in vivo ([4]; in vivo): POS
FDA (0-8) ([4]; in vivo): 3
FDA (Severity) ([4]; in vivo): less DILI concern
O'Brien et al. (2003) ([4]; in vivo): Moderately
Sakatis et al. (2012) ([4]; in vivo): Hepatotoxic
Suzuki et al. (2010) ([4]; in vivo): 1
Type of DILI ([4]; in vivo): Hepatocellular injury, Cholestatic injury or Mixed hepatitis
Xu et al. (2008) ([4]; in vivo): Positive

CNC(=O)Oc1ccc2c(c1)[C@]1(C)CCN(C)[C@@H]1N2C [Physostigmine]
Cmax ([1]; human, in vivo): 18 nM
Chemically defined spheroids (this study) 20x [2]: Negative
Extent of hepatic metabolism [3]: Extensive
FDA (0-8) [4, 6]: 0
DILI in vivo [4, 7]: NEG
Classified as [4, 8]: NEG
DILI in vivo [4, 9]: NEG
Xu et al. (2008) [4, 10]: Negative
O'Brien et al. (2003) ([4]; in vivo): Non-toxic
Type of DILI [4, 11]: Non-hepatotoxic

CCN(CC)Cc1cc(Nc2ccnc3cc(Cl)ccc23)ccc1O [Amodiaquine]
Cmax [1, 5]: 1910 nM
Chemically defined spheroids (this study) 20x [2]: Positive
hepatotoxicity evaluation in CD-spheroids ([2]; human, 14 days): highly toxic at 5× and 20× of therapeutic serum levels
Extent of hepatic metabolism [3]: Extensive
Classified as ([4]; in vivo): POS
Clinical DILI class (panel heading of Figure 4) ([4]; in vivo): Severe DILI
Clinical DILI classification (Figure 5) ([4]; in vivo): DILI positive
DILI in vivo ([4]; in vivo): POS
Type of DILI ([4]; in vivo): Hepatocellular injury

NNc1nnc(NN)c2ccccc12 [Dihydralazine]
Cmax [1, 5]: 2630 nM
Chemically defined spheroids (this study) 20x [2]: Positive
Extent of hepatic metabolism [3]: Moderate
DILI in vivo [4, 7]: POS
Classified as [4, 8]: POS
DILI in vivo [4, 9]: POS
Type of DILI [4, 11]: Hepatocellular injury or Cholestatic injury

CN1Cc2c(N)cccc2C(c2ccccc2)C1 (centres unmarked) [Nomifensine]
Cmax [1, 5]: 5640 nM
Chemically defined spheroids (this study) 20x [2]: Positive
Extent of hepatic metabolism [3]: Moderate
Suzuki et al. (2010) [4, 12]: 3
FDA (Severity) [4, 13]: most DILI concern
FDA (0-8) [4, 6]: Withdrawn
DILI in vivo [4, 7]: POS
Classified as [4, 8]: POS
DILI in vivo [4, 9]: POS
Xu et al. (2008) [4, 10]: Positive
Type of DILI [4, 11]: Cholestatic injury

OC(Cn1cncn1)(Cn1cncn1)c1ccc(F)cc1F [Fluconazole]
Cmax [1, 5]: 8820 nM
Chemically defined spheroids (this study) 20x [2]: Negative
Extent of hepatic metabolism [3]: Minimal
Classified as ([4]; in vivo): POS
Clinical DILI class (panel heading of Figure 4) ([4]; in vivo): Severe DILI
DILI in vivo ([4]; in vivo): POS
FDA (0-8) ([4]; in vivo): 8
FDA (Severity) ([4]; in vivo): most DILI concern
Guo et al. (2005) ([4]; in vivo): 3
Sakatis et al. (2012) ([4]; in vivo): Hepatotoxic
Suzuki et al. (2010) ([4]; in vivo): 1
Type of DILI ([4]; in vivo): Hepatocellular injury
Xu et al. (2008) ([4]; in vivo): Positive

O=C(c1ccccc1)c1ccc2n1CCC2C(=O)O (centres unmarked) [Ketorolac]
Cmax [1, 5]: 2390 nM
Chemically defined spheroids (this study) 20x [2]: Positive
Extent of hepatic metabolism [3]: Moderate
Guo et al. (2005) ([4]; DILI classification score, ref Guo et al. (2005)): 2
Suzuki et al. (2010) [4, 12]: 1
FDA (Severity) [4, 13]: less DILI concern
FDA (0-8) [4, 6]: 3
DILI in vivo [4, 7]: POS
Classified as [4, 8]: POS
DILI in vivo [4, 9]: POS
Xu et al. (2008) [4, 10]: Positive
O'Brien et al. (2003) ([4]; clinical hepatotoxicity classification, ref O'Brien et al. (2003)): Severely

CCCN(CCC)C(=O)Cc1c(-c2ccc(Cl)cc2)nc2ccc(Cl)cn12 [Alpidem]
Cmax [1, 5]: 670 nM
Chemically defined spheroids (this study) 20x [2]: Positive
Extent of hepatic metabolism [3]: Extensive
Suzuki et al. (2010) [4, 12]: 3
FDA (Severity) [4, 13]: most DILI concern
FDA (0-8) [4, 6]: Withdrawn
DILI in vivo [4, 7]: POS
Classified as [4, 8]: POS
DILI in vivo [4, 9]: POS
Sakatis et al. (2012) ([4]; clinical hepatotoxicity classification, ref Sakatis et al. (2012)): Hepatotoxic
Type of DILI [4, 11]: Hepatocellular injury
